# Target: T1, histone H1
# T1 construct: Recombinant histone H1 immobilized on CM5 chip
# Test: SPR (Biacore 8K, […] Langmuir fit); supported by in vitro co-condensation with H1-CFP
# Assay type: binding
smiles,measurement,value
COc1cccc2c1C(=O)c1c(O)c3c(c(O)c1C2=O)C[C@@](O)(C(=O)CO)C[C@@H]3O[C@H]1C[C@H](N)[C@H](O)[C@H](C)O1 [adriamycin],Kd,1.97 µM
